In patent US20240398787A1, “TREATMENT OF MAJOR DEPRESSIVE DISORDER” (AbbVie Inc., priority 2021, published 2024):

Legend:
Type in all cases: in vivo, human
[1] = test system: patients with major depressive disorder (MDD); assay: Clinical Global Impressions-Improvement (CGI-I) score and response, Clinical Study A; details: for CGI-I response rate (score ≤2): LOCF; for CGI-I LS Mean (change from baseline to week 6) / LSMD vs placebo, CGI-I: MMRM
Method: (§1) A global, multicenter, randomized, double-blind (DB), placebo-controlled, parallel-group, fixed-dose study compared cariprazine 1.5 mg/day and cariprazine 3 mg/day with placebo as an adjunctive treatment to ongoing ADT in outpatients with a diagnosis of MDD (via the Diagnostic and Statistical Manual of Mental Disorders, Fifth Edition [DSM-5]) having an inadequate response, as measured by the modified Antidepressant Treatment Response Questionnaire (ATRQ), to 1 to 3 antidepressants administered during the current episode at an adequate dose and adequate duration. Adequate dose was defined as a dose above the minimum labeled dose (per package insert). Adequate duration was defined as continuous ADT treatment for at least 6 weeks, with a minimum of 3 of 6 weeks above the minimal dose.
(§2) The study consisted of up to 14 days screening (with up to an additional 7 days of needed) and washout of prohibited medications followed by 6 weeks of double-blind (DB) treatment followed by a 4-week safety follow-up. At the end of the screening period, patients meeting the entry criteria for the study were randomized (1:1:1) to 1 of 3 double-blind treatment groups. Study treatment groups were: cariprazine 1.5 mg/day+antidepressant therapy and cariprazine 3 mg/day+antidepressant therapy. The control group received matching placebo+antidepressant therapy.
(§3) Dosage/Dose Regimen: Investigational product (cariprazine or placebo) in the form of capsules packaged in blister packs will be provided. No investigational product was administered during the screening/washout period; patients continued the same antidepressant and dose they were on at screening. Patients were taking more than one antidepressant at screening, regardless of the indication, discontinued all other antidepressants prior to baseline (Visit 2). During the double-blind treatment period (6 weeks), patients were administered 1 capsule orally per day in addition to their ongoing ADT. Patients in the 1.5 mg/day+ADT arm were administered 1.5 mg+ADT starting at Visit 2 (Week 0). Patients in the 3 mg/day+ADT arm were administered 1.5 mg+ADT starting at Visit 2 (Week 0) for 2 weeks and then titrate to 3 mg/day+ADT starting at Visit 4 (Week 2). Patients were supplied with identically appearing capsules of either cariprazine 1.5 mg, cariprazine 3 mg, or placebo.
(§4) A randomized, double-blind, placebo-controlled, multicenter trial with 759 participants was conducted in United States, Bulgaria, Estonia, Germany, Hungary, Ukraine, and the United Kingdom. Following a screening period of up to 14 days (with up to an additional 7 days if needed), which included a washout of prohibited psychotropic medications except for ongoing ADT, patients with a partial response to their antidepressant monotherapy were randomized into three treatment groups (1:1:1). One group received cariprazine 1.5 mg/d+ADT, one received cariprazine 3.0 mg/d+ADT, and one group received placebo+ADT. All participants randomized to cariprazine began on 1.5 mg/d; cariprazine 1.5 mg/d patients remained at that dosage, while cariprazine 3.0 mg/d patients received 1.5 mg/d for 2 weeks and increased to 3.0 mg/d on day 15.
The primary and secondary efficacy parameters were change from baseline to week 6 in Montgomery-Åsberg Depression Rating Scale (MADRS) total score and Clinical Global Impressions-Severity (CGI-S) score, respectively (screening, baseline, and weeks 1, 2, 4, and 6). Additional efficacy parameters (screening, baseline, and ≥1 double-blind visit) included: MADRS response (≥50% MADRS total score reduction) and remission (MADRS total score ≤10); change from baseline in HAMD-17 total score and Hamilton Anxiety Rating Scale (HAM-A) total score (32); and Clinical Global Impressions-Improvement (CGI-I) score and response (CGI-I score ≤2). […]

[2] = test system: patients with major depressive disorder (MDD); assay: Hamilton Anxiety Rating Scale (HAM-A) total score, Clinical Study A; details: for LS mean change from baseline to week 6, HAM-A / LSMD vs placebo, HAM-A: MMRM; for HAM-A remission rate (total score ≤7) / HAM-A remission, odds ratio vs placebo / HAM-A response rate (≥50% score reduction from baseline) / HAM-A response, odds ratio vs placebo / LSMD vs placebo, HAM-A: week 6; for HAM-A remission rate (total score ≤7) / HAM-A remission, odds ratio vs placebo / HAM-A response rate (≥50% score reduction from baseline) / HAM-A response, odds ratio vs placebo: LOCF
Method: as §1, §2, §3, §4
The primary and secondary efficacy parameters were change from baseline to week 6 in Montgomery-Åsberg Depression Rating Scale (MADRS) total score and Clinical Global Impressions-Severity (CGI-S) score, respectively (screening, baseline, and weeks 1, 2, 4, and 6). Additional efficacy parameters (screening, baseline, and ≥1 double-blind visit) included: MADRS response (≥50% MADRS total score reduction) and remission (MADRS total score ≤10); change from baseline in HAMD-17 total score and Hamilton Anxiety Rating Scale (HAM-A) total score (32); and Clinical Global Impressions-Improvement (CGI-I) score and response (CGI-I score ≤2).
The Hamilton Anxiety Rating Scale (HAM-A) (Hamilton 1959) is a clinician-rated scale which consists of 14 items, each rated on a 5-point scale ranging from 0 (not present) to 4 (very severe). […]

[3] = test system: patients with major depressive disorder (MDD); assay: Hamilton Depression Rating Scale-17 (HAMD-17) total score, Clinical Study A; details: ANCOVA and LOCF; for LSMD vs placebo, HAMD-17: week 6
Method: as §1, §2, §3
(§5) A randomized, double-blind, placebo-controlled, multicenter trial with 759 participants was conducted in United States, Bulgaria, Estonia, Germany, Hungary, Ukraine, and the United Kingdom. […]

[4] = Weight changes, Clinical Study A
Method: as §1, §2, §3, §5

CN(C)C(=O)N[C@H]1CC[C@H](CCN2CCN(c3cccc(Cl)c3Cl)CC2)CC1 [Cariprazine, trans-N-{4-[2-[4-(2,3-dichlorophenyl)piperazin-1-yl]ethyl]cyclohexyl}-N′,N′-dimethylurea]
CGI-I response rate (score ≤2) ([1]; 1.5 mg/d + ADT, week 6): 51.2% | CGI-I LS Mean (change from baseline to week 6) ([1]; 1.5 mg/d + ADT, week 6): 2.6 | LSMD vs placebo, CGI-I ([1]; 1.5 mg/d + ADT, week 6): −0.3 | CGI-I responders (score ≤2) ([1]; 1.5 mg/day + ADT, week 1): 29 (11.6) n (%) | CGI-I response, odds ratio vs placebo (95% CI) ([1]; 1.5 mg/day + ADT, week 1): 2.0 (1.0, 3.8) | CGI-I responders (score ≤2) ([1]; 1.5 mg/day + ADT, week 2): 67 (26.8) n (%) | CGI-I response, odds ratio vs placebo (95% CI) ([1]; 1.5 mg/day + ADT, week 2): 1.4 (0.9, 2.1) | CGI-I responders (score ≤2) ([1]; 1.5 mg/day + ADT, week 4): 115 (46.0) n (%) | CGI-I response, odds ratio vs placebo (95% CI) ([1]; 1.5 mg/day + ADT, week 4): 1.6 (1.1, 2.3) | CGI-I responders (score ≤2) ([1]; 1.5 mg/day + ADT, week 6): 128 (51.2) n (%) | CGI-I response rate (score ≤2) ([1]; 3.0 mg/d + ADT, week 6): 50.4% | CGI-I LS Mean (change from baseline to week 6) ([1]; 3 mg/d + ADT, week 6): 2.6 | LSMD vs placebo, CGI-I ([1]; 3 mg/d + ADT, week 6): −0.3 | CGI-I responders (score ≤2) ([1]; 3 mg/day + ADT, week 1): 20 (7.9) n (%) | CGI-I response, odds ratio vs placebo (95% CI) ([1]; 3 mg/day + ADT, week 1): 1.3 (0.6, 2.6) | CGI-I responders (score ≤2) ([1]; 3 mg/day + ADT, week 2): 62 (24.6) n (%) | CGI-I response, odds ratio vs placebo (95% CI) ([1]; 3 mg/day + ADT, week 2): 1.2 (0.8, 1.9) | CGI-I responders (score ≤2) ([1]; 3 mg/day + ADT, week 4): 102 (40.5) n (%) | CGI-I response, odds ratio vs placebo (95% CI) ([1]; 3 mg/day + ADT, week 4): 1.3 (0.9, 1.8) | CGI-I responders (score ≤2) ([1]; 3 mg/day + ADT, week 6): 127 (50.4) n (%) | LS mean change from baseline to week 6, HAM-A ([2]; 1.5 mg/d + ADT): −9.1 | HAM-A remission rate (total score ≤7) ([2]; 1.5 mg/d + ADT): 28.7% | HAM-A remission, odds ratio vs placebo ([2]; 1.5 mg/d + ADT): 1.2 | HAM-A response rate (≥50% score reduction from baseline) ([2]; 1.5 mg/d + ADT): 40.9% | HAM-A response, odds ratio vs placebo ([2]; 1.5 mg/d + ADT): 1.3 | LSMD vs placebo, HAM-A ([2]; 1.5 mg/d + ADT): −1.3 | LS mean change from baseline to week 6, HAM-A ([2]; 3 mg/d + ADT): −8.6 | HAM-A remission rate (total score ≤7) ([2]; 3.0 mg/d + ADT): 27.9% | HAM-A remission, odds ratio vs placebo ([2]; 3.0 mg/d + ADT): 1.1 | HAM-A response rate (≥50% score reduction from baseline) ([2]; 3.0 mg/d + ADT): 41.0% | HAM-A response, odds ratio vs placebo ([2]; 3.0 mg/d + ADT): 1.3 | LSMD vs placebo, HAM-A ([2]; 3 mg/d + ADT): −0.8 | LS mean change from baseline to week 6, HAMD-17 total score ([3]; 1.5 mg/d + ADT): −12.7 | LSMD vs placebo, HAMD-17 ([3]; 1.5 mg/d + ADT): −2.1 | LS mean change from baseline to week 6, HAMD-17 total score ([3]; 3 mg/d + ADT): −11.9 | LSMD vs placebo, HAMD-17 ([3]; 3 mg/d + ADT): −1.2 | Weight change from baseline, mean (SD) ([4]; 1.5 mg + ADT, n = 252): 0.68 (2.5) kg | Weight increase ≥7% from baseline ([4]; 1.5 mg + ADT, n = 252): 10 (4.0) n (%) | Weight change from baseline, mean (SD) ([4]; 3 mg + ADT, n = 252): 0.78 (2.8) kg | Changes in weight at the end of treatment ([4]; all treatment groups): < 1 kg
